Experimental findings from ChEMBL document CHEMBL3046932, “Synthesis, 5-HT1A and 5-HT2A receptor affinity and QSAR study of 1-benzhydryl-piperazine derivatives with xanthine moiety at N4” (Med Chem Res, 2012) are described below.

Each structure is given as a SMILES string.

Assay [1] deals with 5-hydroxytryptamine receptor 2A (Rattus norvegicus, UniProt P14842). In words: Displacement of [3H]Ketanserin from 5-HT2A receptor in rat cortex. Background: Loss of bound radioactivity is the signal in a displacement assay; it reports binding, not function.
In assay [2] the target is T1, 5-hydroxytryptamine receptor 1A (Rattus norvegicus, UniProt P19327).
T1 sequence (P19327 whole entry): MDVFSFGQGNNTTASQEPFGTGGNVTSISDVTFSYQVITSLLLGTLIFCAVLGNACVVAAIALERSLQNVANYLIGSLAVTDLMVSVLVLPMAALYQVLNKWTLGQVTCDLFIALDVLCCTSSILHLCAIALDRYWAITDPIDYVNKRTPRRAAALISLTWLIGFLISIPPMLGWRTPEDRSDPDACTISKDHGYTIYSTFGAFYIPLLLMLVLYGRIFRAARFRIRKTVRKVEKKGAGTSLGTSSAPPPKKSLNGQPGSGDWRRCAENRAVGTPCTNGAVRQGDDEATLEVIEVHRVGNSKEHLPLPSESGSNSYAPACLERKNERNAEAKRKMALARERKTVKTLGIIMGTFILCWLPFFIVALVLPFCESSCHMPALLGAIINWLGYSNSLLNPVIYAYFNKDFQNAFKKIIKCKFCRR
The experiment in a line: Displacement of [3H]8-OH-DPAT from 5-HT1A receptor in Rattus norvegicus (rat) hippocampus.

The target in assay [3] is T2, 5-hydroxytryptamine receptor 2A (Homo sapiens, UniProt P28223). In words: Binding affinity to 5-HT2A (unknown origin).
Assay [4] concerns the target T3, 5-hydroxytryptamine receptor 1A (Homo sapiens, UniProt P08908).
T3 sequence (P08908 whole entry): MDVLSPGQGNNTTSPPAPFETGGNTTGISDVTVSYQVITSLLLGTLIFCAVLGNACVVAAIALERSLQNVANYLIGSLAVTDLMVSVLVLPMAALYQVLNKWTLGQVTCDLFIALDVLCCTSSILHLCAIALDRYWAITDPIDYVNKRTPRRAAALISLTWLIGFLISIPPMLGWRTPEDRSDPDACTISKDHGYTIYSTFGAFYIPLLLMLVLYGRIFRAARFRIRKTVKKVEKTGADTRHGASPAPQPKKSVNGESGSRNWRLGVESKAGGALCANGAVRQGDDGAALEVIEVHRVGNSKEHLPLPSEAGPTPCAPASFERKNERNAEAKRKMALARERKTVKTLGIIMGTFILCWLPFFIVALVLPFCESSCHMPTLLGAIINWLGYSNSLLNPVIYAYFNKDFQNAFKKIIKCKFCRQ
In words: Binding affinity to 5-HT1A (unknown origin).

The target of assay [5] is T2, 5-hydroxytryptamine receptor 2A. In words: Displacement of [3H]Ketanserin from 5-HT2A receptor (unknown origin).
Assay [6] is described as follows: Selectivity index, ratio of Ki for rat 5-HT1A to Ki for 5-HT2A (unknown origin).

T2 sequence (P28223 whole entry): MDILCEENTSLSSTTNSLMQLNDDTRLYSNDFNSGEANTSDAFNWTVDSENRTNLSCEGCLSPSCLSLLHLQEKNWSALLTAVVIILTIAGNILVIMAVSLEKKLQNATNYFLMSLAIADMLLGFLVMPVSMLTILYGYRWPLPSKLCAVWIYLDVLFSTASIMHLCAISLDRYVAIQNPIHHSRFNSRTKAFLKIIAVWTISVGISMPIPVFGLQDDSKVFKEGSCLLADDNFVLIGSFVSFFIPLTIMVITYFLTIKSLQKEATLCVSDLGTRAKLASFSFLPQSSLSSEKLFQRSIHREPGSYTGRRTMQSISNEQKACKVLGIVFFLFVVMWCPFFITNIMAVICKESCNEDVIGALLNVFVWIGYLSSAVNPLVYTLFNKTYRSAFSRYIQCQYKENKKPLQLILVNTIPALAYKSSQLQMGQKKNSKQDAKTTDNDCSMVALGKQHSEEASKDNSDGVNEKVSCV
Sequence of 5-hydroxytryptamine receptor 2A (Rattus norvegicus, UniProt P14842) (P14842 whole entry): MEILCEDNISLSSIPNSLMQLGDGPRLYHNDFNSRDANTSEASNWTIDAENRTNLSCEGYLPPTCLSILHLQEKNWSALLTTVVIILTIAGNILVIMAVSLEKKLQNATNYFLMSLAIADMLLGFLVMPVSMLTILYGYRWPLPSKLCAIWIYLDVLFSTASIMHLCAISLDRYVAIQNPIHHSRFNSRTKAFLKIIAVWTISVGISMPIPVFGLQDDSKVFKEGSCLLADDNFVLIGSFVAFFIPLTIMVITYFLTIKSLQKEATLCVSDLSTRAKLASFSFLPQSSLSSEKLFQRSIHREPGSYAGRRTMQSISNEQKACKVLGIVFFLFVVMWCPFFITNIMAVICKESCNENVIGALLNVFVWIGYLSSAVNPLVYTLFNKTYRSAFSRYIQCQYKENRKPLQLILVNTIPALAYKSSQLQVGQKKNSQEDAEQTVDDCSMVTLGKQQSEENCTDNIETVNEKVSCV

With `COc1ccccc1N1CCN(CCCNc2nc3c(c(=O)n(C)c(=O)n3C)n2CCCc2ccccc2)CC1`, the results for the Ki in assay [1] and in assay [2] (read-out: pKi (converted)) were 0.304 µM and 0.008 µM, respectively.
For the compound `Cn1c(=O)c2c(nc3n2CCCC(=O)N3CCCN2CCN(c3ncccn3)CC2)n(C)c1=O`, the Ki is 38.8 µM in assay [3] and 0.474 µM in assay [4].
As for `Cn1c(=O)c2c(nc(N3CCN(C(c4ccccc4)c4ccccc4)CC3)n2C)n(C)c1=O`, the Ki in assay [2] (read-out: Ki) was determined as 10.8 µM; in assay [5] it was 22.5 µM. Moreover, the Ratio Ki in assay [6] is 0.5.
`Cn1c(=O)c2c(nc(NCCCN3CCN(c4cccc(Cl)c4)CC3)n2CCc2ccccc2)n(C)c1=O`: the Ki in assay [1] was 0.119 µM; in assay [2] (read-out: pKi (converted)), 0.21 µM.
For `CCOC(=O)Cn1c(NCCCN2CCN(c3ccccc3)CC2)nc2c1c(=O)n(C)c(=O)n2C`, the Ki in assay [1] is 0.449 µM; in assay [2] (read-out: pKi (converted)) it was 0.22 µM; in assay [3] it was 1.01 µM; in assay [4], 0.592 µM.
`Cn1c(=O)c2c(nc3n2CCCCN3CCCN2CCN(c3ccccc3)CC2)n(C)c1=O`: the Ki in assay [3] is 0.258 µM; in assay [4], 0.031 µM.
For `COc1ccccc1N1CCN(CCCN2C(=O)CCn3c2nc2c3c(=O)n(C)c(=O)n2C)CC1` the same measures were 4.22 µM and 0.0216 µM.
As for `Cn1c(=O)c2c(nc3n2CCC(=O)N3CCCN2CCN(c3cccc(Cl)c3)CC2)n(C)c1=O`, the values for the Ki in assay [3] and in assay [4] were 0.182 µM and 0.0429 µM, respectively.
With `Cn1c(=O)c2c(nc3n(CCCCN4CCN(c5cccc(Cl)c5)CC4)c(=O)ccn23)n(C)c1=O`, the Ki was 0.153 µM in assay [1] and 0.00879 µM in assay [2] (read-out: pKi (converted)).
For `Cn1c(=O)c2c(nc3n(CCCN4CCN(c5ccccc5)CC4)c(=O)ccn23)n(C)c1=O`, the values for the Ki in assay [3] and in assay [4] were 4.68 µM and 0.025 µM, respectively.
For the compound `CCCCn1c(NCCCN2CCN(c3ccccc3)CC2)nc2c1c(=O)n(C)c(=O)n2C`, the Ki in assay [3] is 0.614 µM; in assay [4] it was 0.1 µM.
For `COc1ccccc1N1CCN(CCCCn2c(=O)ccn3c4c(=O)n(C)c(=O)n(C)c4nc23)CC1`, the figures for the Ki in assay [1] and in assay [2] (read-out: pKi (converted)) were 1.07 µM and 0.0005 µM, respectively.
In the case of `Cn1cnc2c1c(=O)n(CCCN1CCN(C(c3ccccc3)c3ccccc3)CC1)c(=O)n2C`, the results for the Ki in assay [2] (read-out: Ki) and in assay [5] were 1.99 µM and 0.0586 µM, respectively. Moreover, the Ratio Ki in assay [6] came out at 33.9.
On to `COc1ccccc1N1CCN(CCCN2CCCn3c2nc2c3c(=O)n(C)c(=O)n2C)CC1`, for which the Ki in assay [3] was 0.486 µM; in assay [4], 0.0028 µM.
In the same order, the values of `COc1ccccc1N1CCN(CCCN2C(=O)CCCn3c2nc2c3c(=O)n(C)c(=O)n2C)CC1` are 5.01 µM and 0.168 µM.
In the case of `CC(c1ccccc1)n1c(NCCCN2CCN(c3ccccc3)CC2)nc2c1c(=O)n(C)c(=O)n2C` (centres undefined), the Ki in assay [1] was 0.115 µM; in assay [2] (read-out: pKi (converted)), 1.01 µM.
For `Cn1c(=O)c2c(nc3n2CCCC(=O)N3CCCN2CCN(c3cccc(Cl)c3)CC2)n(C)c1=O`, the Ki in assay [3] is 0.359 µM; in assay [4], 0.0603 µM.
Regarding `COc1ccccc1N1CCN(CCCN2CCCCn3c2nc2c3c(=O)n(C)c(=O)n2C)CC1`, the results for the Ki in assay [3] and in assay [4] were 0.562 µM and 0.0172 µM, respectively.
Regarding `COc1ccccc1N1CCN(CCCNc2nc3c(c(=O)n(C)c(=O)n3C)n2Cc2ccccc2)CC1`, the Ki in assay [1] is 0.55 µM; in assay [2] (read-out: pKi (converted)) it was 0.048 µM.
In the case of `Cn1c(=O)c2c(nc3n2CCCN3CCCN2CCN(c3ccccc3)CC2)n(C)c1=O`, the Ki was 0.422 µM in assay [3] and 0.016 µM in assay [4].
With `Cn1c(=O)c2c(nc(NCCCN3CCN(C(c4ccccc4)c4ccccc4)CC3)n2C)n(C)c1=O`, the Ki was 1.57 µM in assay [2] (read-out: Ki) and 0.307 µM in assay [5]. For the same compound, in assay [6], the Ratio Ki was 5.1.
In the case of `Cn1c(=O)c2c(nc(NCCCN3CCN(c4cccc(Cl)c4)CC3)n2CCCc2ccccc2)n(C)c1=O`, the Ki in assay [1] is 0.346 µM; in assay [2] (read-out: pKi (converted)), 0.01 µM.
For the compound `Cn1c(=O)c2c(nc3n(CCCN4CCN(c5cccc(Cl)c5)CC4)c(=O)ccn23)n(C)c1=O`, the Ki in assay [3] was 1.08 µM; in assay [4] it was 0.0328 µM.
In the case of `Cn1c(=O)c2c(nc(NCCCN3CCN(c4ccccc4)CC3)n2C)n(C)c1=O`, the values for the Ki in assay [3] and in assay [4] were 0.197 µM and 0.385 µM, respectively.
Take `Cn1c(=O)c2c(nc3n2CCC(=O)N3CCCN2CCN(c3ncccn3)CC2)n(C)c1=O`: the values for the Ki in assay [3] and in assay [4] were 28 µM and 0.042 µM, respectively.
With `Cn1c(=O)c2c(nc(NCCCN3CCN(c4ccccc4)CC3)n2CCCc2ccccc2)n(C)c1=O`, the Ki was 0.445 µM in assay [1] and 0.05 µM in assay [2] (read-out: pKi (converted)).
For `Cn1c(=O)c2c(nc3n(CCCCN4CCN(c5ccccc5)CC4)c(=O)ccn23)n(C)c1=O` the same measures were 1.99 µM and 0.0215 µM.
With `Cn1c(=O)c2c(nc3n2CCCN3CCCCN2CCN(c3ccccc3)CC2)n(C)c1=O`, the Ki in assay [3] is 0.243 µM; in assay [4] it was 0.0021 µM.
In the same order, the values of `Cn1c(=O)c2c(nc3n2CCCCN3CCCN2CCN(c3cccc(Cl)c3)CC2)n(C)c1=O` are 0.33 µM and 0.0267 µM.
For `COc1ccccc1N1CCN(CCCn2c(=O)ccn3c4c(=O)n(C)c(=O)n(C)c4nc23)CC1` the same measures were 3.88 µM and 0.0104 µM.
For `Cn1c(=O)c2c(nc3n2CCCN3CCCN2CCN(c3ncccn3)CC2)n(C)c1=O` the same measures were 8.15 µM and 0.036 µM.
Regarding `Cn1c(=O)c2c(nc3n2CCCN3CCCN2CCN(c3cccc(Cl)c3)CC2)n(C)c1=O`, the figures for the Ki in assay [3] and in assay [4] were 0.126 µM and 0.0257 µM, respectively.
